Assay results from patent US20250367308A1, “LIGAND-DRUG CONJUGATE OF CAMPTOTHECIN ANALOGS, INTERMEDIATES, PREPARATION METHOD THEREFOR, PHARMACEUTICAL COMPOSITION AND APPLICATION THEREOF” (SHANGHAI MICURX PHARMACEUTICAL CO.,LTD., priority 2022, published 2025).
Where two headings read alike, the source gives them in different places.

System: Human lung adenocarcinoma cell line A549
Assay: In vitro cytotoxicity test of camptothecin payloads (CellTiter-Glo)
Assay type: cell-based
Conditions: for IC50: Homo sapiens, A549, 72 h, read-out: A549 Cytotoxicity IC50 (nM)
Description: Human lung adenocarcinoma cell line A549 was used to evaluate the cytotoxicity of small molecule fragment of the present invention. A549 cells were seeded to a 96-well plate at 2000 cells per well.

Structure (SMILES)	IC50 [nM]	other results
CC[C@@]1(O)C(=O)OCc2c1cc1n(c2=O)Cc2c-1nc1cc(F)c(C)cc1c2CN1CCC(CO)CC1 [Example 10, (S)-4-ethyl-8-fluoro-4-hydroxy-11-((4-(hydroxymethyl)piperidin-1-yl)methyl)-9-methyl-1H-pyrano[3′,4′:6,7] indolizino[1,2-b]quinoline-3,14(4H,12H)-dione]	67	relative A549 cytotoxic potency in words (human, 3 days): less potent than Example 17
CC[C@@]1(O)C(=O)OCc2c1cc1n(c2=O)Cc2c-1nc1cc3c(cc1c2CN1CCC([C@@H](C)O)CC1)OCCO3 [Example 36]	38.4	–
CC[C@@]1(O)C(=O)OCc2c1cc1n(c2=O)Cc2c-1nc1cc(F)c(C)cc1c2CN1CCC(C2(O)CCC2)CC1 [Example 30, (S)-4-ethyl-8-fluoro-4-hydroxy-11-((4-(1-hydroxycyclobutyl)piperidin-1-yl)methyl)-9-methyl-1H-pyrano[3′,4′:6,7] indolizino[1,2-b]quinoline-3,14(4H,12H)-dione]	28.6	–
CC[C@@]1(O)C(=O)OCc2c1cc1n(c2=O)Cc2c-1nc1cc(F)c(C)cc1c2CN1CCC2(CCC2O)CC1 (stereo partly drawn) [Example 32, (4S)-4-ethyl-8-fluoro-4-hydroxy-11-((1-hydroxy-7-azaspiro[3.5]nonan-7-yl)methyl)-9-methyl-1H-pyrano[3′,4′:6,7] indolizino[1,2-b]quinoline-3,14(4H,12H)-dione]	12.6	–
CC[C@@]1(O)C(=O)OCc2c1cc1n(c2=O)Cc2c-1nc1cc(F)c(C)cc1c2CN1CCC[C@@H](O)C1 [Example 18, (S)-4-ethyl-8-fluoro-4-hydroxy-11-(((R)-3-hydroxypiperidin-1-yl)methyl)-9-methyl-1H-pyrano[3′,4′:6,7] indolizino[1,2-b]quinoline-3,14(4H,12H)-dione]	19.7	–
CC[C@@]1(O)C(=O)OCc2c1cc1n(c2=O)Cc2c-1nc1cc(F)c(C)cc1c2CN1C2CCC1(CO)CC2 [Example 20, (S)-4-ethyl-8-fluoro-4-hydroxy-11-((1-(hydroxymethyl)-7-azabicyclo[2.2.1]heptan-7-yl)methyl)-9-methyl-1H-pyrano[3′,4′:6,7] indolizino[1,2-b]quinoline-3,14(4H,12H)-dione]	24.1	–
CC[C@@]1(O)C(=O)OCc2c1cc1n(c2=O)Cc2c-1nc1cc(F)c(C)cc1c2CN1CC[C@@H](O)C1=O [Example 1, (S)-4-ethyl-8-fluoro-4-hydroxy-11-(((R)-3-hydroxy-2-oxopyrrolidin-1-yl)methyl)-9-methyl-1H-pyrano[3′,4′:6,7] indolizino[1,2-b]quinoline-3,14(4H,12H)-dione]	515	relative A549 cytotoxic potency in words (comparison between analogs of Table 1): much less potent
CC[C@@]1(O)C(=O)OCc2c1cc1n(c2=O)Cc2c-1nc1cc(F)c(C)cc1c2CN1CCC(O)CC1 [Example 16, (S)-4-ethyl-8-fluoro-4-hydroxy-11-((4-hydroxypiperidin-1-yl)methyl)-9-methyl-1H-pyrano[3′,4′:6,7] indolizino[1,2-b]quinoline-3,14(4H,12H)-dione]	81	–
CC[C@@]1(O)C(=O)OCc2c1cc1n(c2=O)Cc2c-1nc1cc(F)c(C)cc1c2CN1CCC[C@H](O)C1 [Example 19, (S)-4-ethyl-8-fluoro-4-hydroxy-11-(((S)-3-hydroxypiperidin-1-yl)methyl)-9-methyl-1H-pyrano[3′,4′:6,7] indolizino[1,2-b]quinoline-3,14(4H,12H)-dione]	15.7	relative A549 cytotoxic potency in words (human, 3 days): more potent than Example 17
CC[C@@]1(O)C(=O)OCc2c1cc1n(c2=O)Cc2c-1nc1cc(F)c(C)cc1c2CN1CC2C(C1CO)C2(C)C (stereo partly drawn) [Example 23, (4S)-4-ethyl-8-fluoro-4-hydroxy-11-((2-(hydroxymethyl)-6,6-dimethyl-3-azabicyclo[3.1.0]hexan-3-yl)methyl)-9-methyl-1H-pyrano[3′,4′:6,7] indolizino[1,2-b]quinoline-3,14(4H,12H)-dione]	49	–
CC[C@@]1(O)C(=O)OCc2c1cc1n(c2=O)Cc2c-1nc1cc(F)c(C)cc1c2CN1CC(C)(C)C[C@@H]1CO [Example 22, (S)-4-ethyl-8-fluoro-4-hydroxy-11-(((R)-2-(hydroxymethyl)-4,4-dimethylpyrrolidin-1-yl)methyl)-9-methyl-1H-pyrano[3′,4′:6,7] indolizino[1,2-b]quinoline-3,14(4H,12H)-dione]	14.3	–
CC[C@@]1(O)C(=O)OCc2c1cc1n(c2=O)Cc2c-1nc1ccc(O)cc1c2CN1CCC([C@@H](C)O)CC1 [Example 38, (S)-4-ethyl-4,9-dihydroxy-11-((4-((R)-1-hydroxyethyl)piperidin-1-yl)methyl)-1,12-dihydro-14H-pyrano[3′,4′:6,7] indolizino[1,2-b]quinoline-3,14(4H)-dione]	1250	–
CC[C@@]1(O)C(=O)OCc2c1cc1n(c2=O)Cc2c-1nc1cc(F)c(F)cc1c2CN1CCC([C@@H](C)O)CC1 [Example 37, (S)-4-ethyl-8,9-difluoro-4-hydroxy-11-((4-((R)-1-hydroxyethyl)piperidin-1-yl)methyl)-1,12-dihydro-14H-pyrano[3′,4′:6,7] indolizino[1,2-b]quinoline-3,14(4H)-dione]	29	–
CC[C@@]1(O)C(=O)OCc2c1cc1n(c2=O)Cc2c-1nc1cc3c(cc1c2CN1C[C@@H]2CCC[C@@H]2[C@H]1CO)OCCO3 [Example 45]	53	–
CC[C@@]1(O)C(=O)OCc2c1cc1n(c2=O)Cc2c-1nc1cc(F)c(C)cc1c2C(C)N1CCC([C@@H](C)O)CC1 (stereo partly drawn) [Example 39, (4S)-4-ethyl-8-fluoro-4-hydroxy-11-(1-(4-((R)-1-hydroxyethyl)piperidin-1-yl)ethyl)-9-methyl-1,12-dihydro-14H-pyrano[3′,4′:6,7] indolizino[1,2-b]quinoline-3,14(4H)-dione]	128	–
CC[C@@]1(O)C(=O)OCc2c1cc1n(c2=O)Cc2c-1nc1cc(F)c(C)cc1c2CN1CCC(C)(CO)C1 (stereo partly drawn) [Example 24, (4S)-4-ethyl-8-fluoro-4-hydroxy-11-((3-(hydroxymethyl)-3-methylpyrrolidin-1-yl)methyl)-9-methyl-1H-pyrano[3′,4′:6,7] indolizino[1,2-b]quinoline-3,14(4H,12H)-dione]	43	–
CC[C@@]1(O)C(=O)OCc2c1cc1n(c2=O)Cc2c-1nc1cc(F)c(C)cc1c2CN1CCC(C(C)O)CC1 (stereo partly drawn) [Example 13, (4S)-4-ethyl-8-fluoro-4-hydroxy-11-((4-(1-hydroxyethyl)piperidin-1-yl)methyl)-9-methyl-1H-pyrano[3′,4′:6,7] indolizino[1,2-b]quinoline-3,14(4H,12H)-dione]	33	–
CC[C@@]1(O)C(=O)OCc2c1cc1n(c2=O)Cc2c-1nc1cc(F)c(C)cc1c2CN1C[C@H]2C[C@@H](C1)C2O (stereo partly drawn) [Example 47, (4S)-4-ethyl-8-fluoro-4-hydroxy-11-(((1R,5S)-6-hydroxy-3-azabicyclo[3.1.1]heptan-3-yl)methyl)-9-methyl-1,12-dihydro-14H-pyrano[3',4':6,7] indolizino[1,2-b]quinoline-3,14(4H)-dione]	28	–
CC[C@@]1(O)C(=O)OCc2c1cc1n(c2=O)Cc2c-1nc1cc(F)c(C)cc1c2CN1CCCC(O)C1 (stereo partly drawn) [Example 17, (4S)-4-ethyl-8-fluoro-4-hydroxy-11-((3-hydroxypiperidin-1-yl)methyl)-9-methyl-1H-pyrano[3′,4′:6,7] indolizino[1,2-b]quinoline-3,14(4H,12H)-dione]	38	relative A549 cytotoxic potency in words: most potent compound
CC[C@@]1(O)C(=O)OCc2c1cc1n(c2=O)Cc2c-1nc1cc(F)c(C)cc1c2CN1CCC2(CC1)CC(O)C2 [Example 31, (S)-4-ethyl-8-fluoro-4-hydroxy-11-((2-hydroxy-7-azaspiro[3.5]nonan-7-yl)methyl)-9-methyl-1H-pyrano[3′,4′:6,7] indolizino[1,2-b]quinoline-3,14(4H,12H)-dione]	12.5	–
CC[C@@]1(O)C(=O)OCc2c1cc1n(c2=O)Cc2c-1nc1cc(F)c(C)cc1c2CN1CCC(CCO)CC1 [Example 27, (S)-4-ethyl-8-fluoro-4-hydroxy-11-((4-(2-hydroxyethyl)piperidin-1-yl)methyl)-9-methyl-1H-pyrano[3′,4′:6,7] indolizino[1,2-b]quinoline-3,14(4H,12H)-dione]	16.8	–
CC[C@@]1(O)C(=O)OCc2c1cc1n(c2=O)Cc2c-1nc1cc(F)c(C)cc1c2CN1CCC([C@@H](C)O)CC1 [Example 15, (S)-4-ethyl-8-fluoro-4-hydroxy-11-((4-((R)-1-hydroxyethyl)piperidin-1-yl)methyl)-9-methyl-1H-pyrano[3′,4′:6,7] indolizino[1,2-b]quinoline-3,14(4H,12H)-dione]	17.6	–
CC[C@@]1(O)C(=O)OCc2c1cc1n(c2=O)Cc2c-1nc1cc(F)c(C)cc1c2CN1C[C@H]2CC[C@@H](C1)C2O (stereo partly drawn) [Example 33, (4S)-4-ethyl-8-fluoro-4-hydroxy-11-(((1R,5S)-8-hydroxy-3-azabicyclo[3.2.1]octan-3-yl)methyl)-9-methyl-1H-pyrano[3′,4′:6,7] indolizino[1,2-b]quinoline-3,14(4H,12H)-dione]	12.9	–
CC[C@@]1(O)C(=O)OCc2c1cc1n(c2=O)Cc2c-1nc1cc(F)c(C)cc1c2CN1CCCCC1CO (stereo partly drawn) [Example 11, (4S)-4-ethyl-8-fluoro-4-hydroxy-11-((2-(hydroxymethyl)piperidin-1-yl)methyl)-9-methyl-1H-pyrano[3′,4′:6,7] indolizino[1,2-b]quinoline-3,14(4H,12H)-dione]	60	relative A549 cytotoxic potency in words (human, 3 days): less potent than Example 17
CC[C@@]1(O)C(=O)OCc2c1cc1n(c2=O)Cc2c-1nc1cc(F)c(C)cc1c2CN1CCC(O)C1 (stereo partly drawn) [Example 2, (4S)-4-ethyl-8-fluoro-4-hydroxy-11-((3-hydroxypyrrolidin-1-yl)methyl)-9-methyl-1H-pyrano[3′,4′:6,7] indolizino[1,2-b]quinoline-3,14(4H,12H)-dione]	138	–
CC[C@@]1(O)C(=O)OCc2c1cc1n(c2=O)Cc2c-1nc1cc(F)c(C)cc1c2CN1CCCC1CO (stereo partly drawn) [Example 5, (4S)-4-ethyl-8-fluoro-4-hydroxy-11-((2-(hydroxymethyl)pyrrolidin-1-yl)methyl)-9-methyl-1H-pyrano[3′,4′:6,7] indolizino[1,2-b]quinoline-3,14(4H,12H)-dione]	65	–
